The test system of assay [1] is PPAR delta pathway in cultured rat oligodendrocytes. Briefly: Quantitative PCR of PPAR delta pathway transcriptional markers (ADRP mRNA) in cultured rat oligodendrocytes. As to conditions: FIG. 4B. It counts as cell-based. The text has this: • 1. Primary rat oligodendrocyte progenitor cells are obtained from the neocortex of newborn (postnatal days 2-3) rats or mice and are enriched, after removal of microglia, by mechanical separation from the astrocytic monolayer using a modification of the technique originally described by McCarthy and de Vellis (1980). • 2. Remove the meninges from neonatal rat brain and mechanically dissociate tissue. Plate cells on T75 flasks and feed cells with DMEM/F12+10% FBS. • 3. Collect oligodendrocytes growing on the astrocyte bed layer by shaking-off method fourteen days after the original prep date. Centrifuge the suspension and resuspend the cell pellet in serum free media (SFM; DMEM combined with 25 μg/ml transferring, 30 nM triiodothyronine, 20 nM hydrocortisone, 20 nM progesterone, 10 nM biotin, 1× trace elements, 30 nM selenium, 1 μg/ml putrescine, 0.1% BSA, 5 U/ml PenStrep, 10 μg/ml insulin) supplemented with the following growth factors: Platelet derived growth factor-AA (PDGF) and fibroblast growth factor-2 (FGF). • 4. Plate the cells on PDL-coated dishes and incubate at 37° C. with 6-7% CO2. • 5. Media components are replaced every 48 hr to keep the cells in a progenitor state. Progenitor Cell Passaging to Increase Cell Numbers for Screening Assays: • 1. […]
• 1. […] PPAR delta pathway member transcript expression is quantitated using Sybr Green PCR Master Mix. • 4. […]

Another assay deals with T1, Human PPAR gamma (Homo sapiens, UniProt P37231).
T1 construct: expressed in transfected cells
T1 sequence (P37231 1-505): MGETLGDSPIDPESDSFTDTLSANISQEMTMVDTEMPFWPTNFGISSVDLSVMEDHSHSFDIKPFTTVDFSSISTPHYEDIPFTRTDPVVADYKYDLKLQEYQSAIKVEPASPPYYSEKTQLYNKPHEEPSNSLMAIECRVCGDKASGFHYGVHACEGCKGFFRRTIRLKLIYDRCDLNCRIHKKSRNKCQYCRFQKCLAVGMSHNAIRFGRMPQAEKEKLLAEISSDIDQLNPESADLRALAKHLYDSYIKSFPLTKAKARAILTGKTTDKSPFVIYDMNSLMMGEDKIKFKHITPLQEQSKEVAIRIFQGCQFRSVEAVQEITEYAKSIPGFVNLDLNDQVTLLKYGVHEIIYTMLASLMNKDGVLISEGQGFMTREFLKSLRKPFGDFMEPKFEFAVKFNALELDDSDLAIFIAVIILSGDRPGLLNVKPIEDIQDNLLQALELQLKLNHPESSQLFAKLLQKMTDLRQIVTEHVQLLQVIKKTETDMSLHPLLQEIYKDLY
As to the kind of experiment: Cellular PPAR gamma luciferase reporter assay. The class given is cell-based. Here is the method:
Cell Based PPAR Gamma Assay Protocol
To perform cell based assays a luciferase assay is performed in 96 well plates as follows:
Dilution steps and addition of diluted compounds is done using a Beckman Biomek 2000 or Beckman FX robot.
• Aspirate medium from cells • Freeze plates at −20° C. (optional) • Thaw plates for 30 min (if necessary) • Add 50 μl Bright-Glo-Luciferase Assay Reagent (Promega, Cat. No. E2650) • Incubate for 10 min in the dark • Measure luminescence 2 sec per well (Wallac Microbeta) Data Analysis: […]

The next assay has as its target T2, human PPAR delta (Homo sapiens, UniProt Q03181).
T2 sequence (Q03181 139-441): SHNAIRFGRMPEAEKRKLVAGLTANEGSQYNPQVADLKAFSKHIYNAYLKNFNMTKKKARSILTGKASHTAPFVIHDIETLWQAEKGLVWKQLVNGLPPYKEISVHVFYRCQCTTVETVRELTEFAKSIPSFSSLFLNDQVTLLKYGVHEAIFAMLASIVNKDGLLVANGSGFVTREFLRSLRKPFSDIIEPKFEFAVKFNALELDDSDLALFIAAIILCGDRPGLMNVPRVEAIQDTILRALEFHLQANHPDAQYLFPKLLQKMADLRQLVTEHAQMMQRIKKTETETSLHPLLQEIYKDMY
As to the kind of experiment: cell-based.

In the case of `Cc1cc(SCc2sc(-c3ccc(C(F)(F)F)cc3)nc2C)ccc1OCC(=O)O` [Compound 1], in assay [1], the “ADRP mRNA” value was “upregulated”.
With `CCCc1c(OCCCOc2ccc(OCC(=O)O)cc2)ccc(C(C)=O)c1O` [Compound 2], the figures for the EC50 on Human PPAR gamma and at human PPAR delta were 1100 nM and 39 nM, respectively.

As a reminder, the EC50 is the concentration giving half of the maximal effect. A higher EC50 goes with lower potency in that assay.
